# Measurements published in publication PMC5120274, “Characterization of the Annonaceous acetogenin, annonacinone, a natural product inhibitor of plasminogen activator inhibitor-1” (Scientific Reports, 2016).
# Values joined by “and” are separate entries in the source; they are usually repeats but may differ in a detail not shown here. Equal values may be shown once.
# Key:
# tPA = tested on: T1, tPA; test: tPA-catalyzed substrate hydrolysis without PAI-1 (control); type: biochemical, human; details: control without PAI-1
# T1 construct: purchased Stago BNL (Asnières sur Seine, FR)
# Procedure: Compounds from our local collection BioCIS and from the Prestwick compound library (Prestwick chemicals, Illkirch, FR), a collection containing only FDA approved drugs (around 4000 compounds in total) were tested in a chromogenic assay measuring the […] Compounds (20 μL, final concentration 50 μM, 1% DMSO) were dispensed in a 96 well half area Greiner plate. […] At the end of pre-incubation time, 90 μL of the mixture were added to another 96 well half area plate containing 10 μL tPA (final concentration 10 nM). The kinetic was then measured at 405 nm for 45 min at 37 °C in an Envision microplate reader. Progress curves were fitted using the pseudo first order equation to determine the apparent rate constant k.
# human α1-antitrypsin = tested on: T2, human α1-antitrypsin; test: continuous chromogenic assay: inhibition of neutrophil elastase by α1-antitrypsin; type: biochemical; details: α1-antitrypsin pre-incubated with 50 μM annonacinone 20 min 37 °C; untreated 1.2 × 10^−3
# T2 construct: purchased Sigma
# Procedure: 5 μM human α1-antitrypsin (Sigma) or human antithrombin (Aclotin®, LFB) were incubated with 50 μM annonacinone (or 0.5% DMSO in reaction buffer as control) for 20 min at 37 °C. The mixtures containing α1-antitrypsin were diluted in N-Methoxysuccinyl-Ala-Ala-Pro-Val p-nitroanilide (Sigma) containing solution and substrate hydrolysis kinetic was triggered by addition of neutrophil elastase (Sigma) to a final volume of 100 μL containing 13 nM α1-antitrypsin, 130 nM annonacinone, 82 μM chromogenic substrate and 5 nM neutrophil elastase. The mixtures containing antithrombin were diluted in fondaparinux (Arixtra®, GlaxoSmithKline) and CS-11(22)-FXa (Hyphen Biomed) containing solution and substrate hydrolysis kinetic was triggered by addition of factor Xa (Stago BNL) to a final volume of 100 μL containing 51 nM antithrombin, 510 nM annonacinone, 200 μM chromogenic substrate, 5 μM fondaparinux and 2 nM factor Xa.
# PAI-1 = target: T3, PAI-1 (Homo sapiens, UniProt P05121); test: thromboelastography (TEG) on pooled human plasma with tPA and PAI-1; type: biochemical
# T3 construct: purchased Stago BNL (Asnières sur Seine, FR)
# T3 sequence (P05121 24-402): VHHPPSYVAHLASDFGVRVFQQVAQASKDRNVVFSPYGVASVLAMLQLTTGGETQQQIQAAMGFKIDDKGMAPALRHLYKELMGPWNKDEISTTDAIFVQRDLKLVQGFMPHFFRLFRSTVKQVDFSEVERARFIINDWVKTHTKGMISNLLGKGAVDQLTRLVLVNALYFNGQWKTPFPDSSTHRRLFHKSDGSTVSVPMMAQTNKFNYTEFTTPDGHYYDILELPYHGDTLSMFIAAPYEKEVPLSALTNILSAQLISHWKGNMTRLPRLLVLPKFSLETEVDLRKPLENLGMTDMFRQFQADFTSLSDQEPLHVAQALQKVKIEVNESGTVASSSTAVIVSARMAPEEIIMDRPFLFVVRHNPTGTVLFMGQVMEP
# Procedure: 20 μL of CaCl2 (0.2 M), 10 μL of PAI-1 (final concentration 22 nM) and 10 μL of tested compounds were added in a TEG cup and pre-incubated for 20 min at room temperature. On the other hand, 1 mL of pooled citrated normal human plasma (pool of at least 10 healthy donors) was added to a vial containing 20 μL of Kaolin. 680 μl of the plasma/Kaolin mixture were then added to 20 μL of tPA (final concentration 9 nM). At the end of pre-incubation time, 320 μL of the plasma/tPA/kaolin mixture were transferred into the TEG cup and the thromboelastogram measured.
# FeCl3-occluded venules = test: murine model of rtPA-induced thrombolysis by intravital microscopy; type: in vivo, mice
# Procedure: Thrombolysis was evaluated in an in vivo mouse model according to the method previously described[18] with modifications. Briefly, platelets of anesthetized mice were fluorescently labeled in vivo by injection of rhodamine 6G (3.3 mg/kg) into the retro-orbital plexus, then thrombus formation was induced by topical deposition on the mesenteric vessels of ferric chloride solution (FeCl3; 15%) in 4- to 5-week-old mice. Thrombus growth was monitored in real-time with an inverted epifluorescent microscope (x10) (Nikon Eclipse TE2000U). Within the 10 minutes after total occlusion of the vessel, the effect of annonacinone was evaluated on the efficiency of rtPA-induced thrombolysis by applying directly on the occluded vessels a thrombolytic cocktail (40 μL) composed of 40 μM rtPA (Actilyse®), 200 μM Argatroban (Arganova®) and 0.2% DMSO or 20 μM annonacinone. The incidence of the recanalization, defined as a partial or complete restoration of flow associated to a decrease of more than 50% of the initial thrombus size, and the evolution of thrombus size were determined during 1 hour.
# [1] = target: T4, PAI-1/vitronectin complex (Homo sapiens, UniProt P05121); test: chromogenic kinetic assay in presence of vitronectin; type: biochemical
# T4 construct: purchased Stago BNL (Asnières sur Seine, FR)
# T4 sequence (P05121 24-402, one chain of several): as the sequence (P05121 24-402) above
# Procedure: Compounds (20 μL) were dispensed in a 96 well half area Greiner plate. A mixture containing 20 μL of PAI-1 (final concentration 20 nM) and 40 μL of a chromogenic substrate (Spectrozyme-tPA, final concentration 400 μM) was then added, and the mixture pre-incubated for 20 minutes at 37 °C. 40 μL of vitronectin (final concentration 37.5 nM) was added and the mixture further pre-incubated for 20 min at 37 °C. At the end of pre-incubation time, 90 μL of the PAI-1/vitronectin/compound mixture were added to 10 μL of tPA (final concentration 10 nM) and the tPA catalysed substrate hydrolysis reaction was followed for 45 min at 405 nm. Progress curves were then fitted using the pseudo first order equation to determine the apparent rate constant k.
# PAI-1 Y79A = tested on: T5, PAI-1 Y79A; test: chromogenic screening assay with PAI-1 mutant Y79A; type: biochemical
# T5 construct: made in house
# Procedure: (§1) Compounds from our local collection BioCIS and from the Prestwick compound library (Prestwick chemicals, Illkirch, FR), a collection containing only FDA approved drugs (around 4000 compounds in total) were tested in a chromogenic assay measuring the inhibition rate of tPA-catalyzed spectrozyme® tPA hydrolysis in the presence of PAI-1. Compounds (20 μL, final concentration 50 μM, 1% DMSO) were dispensed in a 96 well half area Greiner plate. A mixture containing 20 μL of PAI-1 (final concentration 20 nM) and 80 μL of Spectrozyme-tPA (final concentration 400 μM) was then added, and the mixture pre-incubated for 45 minutes at 37 °C. At the end of pre-incubation time, 90 μL of the mixture were added to another 96 well half area plate containing 10 μL tPA (final concentration 10 nM). The kinetic was then measured at 405 nm for 45 min at 37 °C in an Envision microplate reader. Progress curves were fitted using the pseudo first order equation to determine the apparent rate constant k.
# Mutants were constructed as previously described. […] The effect of annonacinone was measured at 50 μM for each mutant in our chromogenic screening assay. […] For each mutant, the ratio between the apparent rate constants with and without 50 μM annonacinone were calculated and then compared to that of PAI-1 WT to determine the % of annonacinone activity.
# PAI-1 K122A = tested on: T6, PAI-1 K122A; test: chromogenic screening assay with PAI-1 mutant K122A; type: biochemical; details: for Annonacinone activity 50 μM (% WT): ratio of kapp relative to WT (100%)
# T6 construct: made in house
# Procedure: as §1
# Mutants were constructed as previously described. Based on computer modelling, the following mutants were prepared, T79A, T94A, D95A, R118A and K122A. The effect of annonacinone was measured at 50 μM for each mutant in our chromogenic screening assay. Progress curves were fitted using the pseudo first order equation to determine the apparent rate constant k. For each mutant, the ratio between the apparent rate constants with and without 50 μM annonacinone were calculated and then compared to that of PAI-1 WT to determine the % of annonacinone activity.
# [2] = compound 50 μM, tPA 9 nM + PAI-1 22 nM
smiles,measurement,setting,value
CCCCCCCCCCCC[C@@H](O)[C@H]1CC[C@H]([C@H](O)CCCCC(=O)CCCCC[C@@H](O)CC2=C[C@H](C)OC2=O)O1 [Annonacinone],effect on tPA-catalyzed substrate hydrolysis without PAI-1,tPA,no effect
same,kapp of neutrophil elastase inhibition by α1-antitrypsin,human α1-antitrypsin,0.0011 s⁻¹
same,IC50,"PAI-1; LY60 of three independent experiments plotted against concentration, read-out: IC50 from LY60 values",2.3 ± 1 µM
same,"effect on maximal amplitude (MA) and parameters of clot formation (R, K, angle)","PAI-1; TEG, human plasma",no significant effect
same,Angle,PAI-1; [2],73.5 °
same,K (clot formation time),PAI-1; [2],1.6 min
same,MA (maximal amplitude),PAI-1; [2],21.4 mm
same,R (clotting time),PAI-1; [2],6 min
same,LY30 (clot lysis 30 minutes after maximal amplitude),"PAI-1; compound 50 μM, tPA 9 nM + PAI-1 22 nM, tPA alone 94.3%, tPA + PAI-1 0%",87.1%
same,LY60 (clot lysis 60 minutes after maximal amplitude),"PAI-1; compound 50 μM, tPA 9 nM + PAI-1 22 nM, tPA alone 96.8%, tPA + PAI-1 0%",94% and 93.6%
same,incidence of recanalization,"FeCl3-occluded venules; 20 μM annonacinone applied locally with rtPA 40 μM and Argatroban 200 μM, 1 hour, DMSO 0.2% control 28%",71%
same,total number of vessels recanalized per group of 7 mice,"FeCl3-occluded venules; 20 μM annonacinone with rtPA 40 μM and Argatroban 200 μM, 1 hour, DMSO control 2/7",5/7
same,decrease of thrombus size from initial size,"FeCl3-occluded venules; 35 minutes of treatment, 20 μM annonacinone with rtPA and Argatroban, n = 7, DMSO 3.4 ± 8.5%",29.7 ± 7.7%
same,activity on PAI-1 bound to vitronectin,[1]; 50 μM,inactive
same,"kapp, annonacinone added to PAI-1 pre-incubated with vitronectin","[1]; 50 μM, PAI-1 pre-incubated with VN 20 min 37 °C, DMSO 1% 1.05 ± […] 10^−2",2.16 ± 0.17 × 10^−2 s^−1
same,"kapp, annonacinone pre-incubated with PAI-1 before addition of vitronectin","[1]; 50 μM, pre-incubation with PAI-1 20 min 37 °C, then VN 20 min 37 °C",2.39 ± 0.32 × 10^−3 s^−1
same,IC50,[1]; annonacinone pre-incubated with PAI-1 before vitronectin,10 ± 2 µM
same,kapp Annonacinone 50 μM,"PAI-1 Y79A; DMSO 1% 4,0 ± 1,0 × 10^−3, n = 4","4,8 ± 0,9 × 10^−3 s^−1"
same,Annonacinone activity 50 μM (% WT),PAI-1 Y79A; ratio of kapp without/with annonacinone relative to WT (100%),12 ± 2 % WT
same,kapp Annonacinone 50 μM,"PAI-1 K122A; DMSO 1% 1,9 ± 0,3 × 10^−3, n = 4","3,5 ± 0,9 × 10^−4 s^−1"
same,Annonacinone activity 50 μM (% WT),PAI-1 K122A,80 ± 13 % WT
same,Annonacinone activity 50 μM (% WT),PAI-1 K122A; listed as annonacinone,no effect
